The numbers were not newly measured in patent US5952383A, “Pharmaceutical composition for oral delivery” (Negma-Steba International Development N.V., priority 1996, dated 1999), which cites them from elsewhere.

Each structure is given as a SMILES string. Where a name gives a salt, the structure may show the parent alone.

For series [1] the following is noted: oral.

For `CC(=O)Oc1cccc2c1C(=O)c1c(OC(C)=O)cc(C(=O)O)cc1C2=O` [diacerein, diacetylrhein], the “solubility in carbonate solutions and in tetrahydrofuran” value (carbonate solutions and tetrahydrofuran) was “sparingly soluble”. Also, the “solubility in water and in alcohols” value (water and alcohols) is recorded as “virtually insoluble”. The “solubility in water and ethanol” value (water and ethanol) is “virtually insoluble”. In addition, the “absorption by the digestive tract” value in series [1] is reported as “not totally absorbed”. For the same compound, the undesirable side effects entry in series [1] (on account of incomplete absorption) is reported as “laxative effects”.

For `CC(=O)Oc1cccc2c1C(=O)c1c(OC(C)=O)cc(C(=O)O)cc1C2=O` [potassium salt of diacerein], the solubility in water result (water, EP-A-243,968) is “water-soluble”.
